Activity calls are given as the source filed them.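 Rule for the calls: active = maximal inhibition of USP17 at or above 30% in the confirmation dose-response, a value not among the printed readouts; inactive = the rest.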
Target: Ubiquitin carboxyl-terminal hydrolase 17-like protein 5 (Homo sapiens) (UniProt A8MUK1)
Assay: ubiquitin-specific protease 17 DUB inhibitors, concentration-effect assay, cell-free, verification of initial screening actives (AID 1645864)
Conditions: purified USP17, ubiquitin-rhodamine cleavage fluorescence, 3 h

Sequence of Ubiquitin carboxyl-terminal hydrolase 17-like protein 5 (Homo sapiens) (A8MUK1 whole entry, looked up): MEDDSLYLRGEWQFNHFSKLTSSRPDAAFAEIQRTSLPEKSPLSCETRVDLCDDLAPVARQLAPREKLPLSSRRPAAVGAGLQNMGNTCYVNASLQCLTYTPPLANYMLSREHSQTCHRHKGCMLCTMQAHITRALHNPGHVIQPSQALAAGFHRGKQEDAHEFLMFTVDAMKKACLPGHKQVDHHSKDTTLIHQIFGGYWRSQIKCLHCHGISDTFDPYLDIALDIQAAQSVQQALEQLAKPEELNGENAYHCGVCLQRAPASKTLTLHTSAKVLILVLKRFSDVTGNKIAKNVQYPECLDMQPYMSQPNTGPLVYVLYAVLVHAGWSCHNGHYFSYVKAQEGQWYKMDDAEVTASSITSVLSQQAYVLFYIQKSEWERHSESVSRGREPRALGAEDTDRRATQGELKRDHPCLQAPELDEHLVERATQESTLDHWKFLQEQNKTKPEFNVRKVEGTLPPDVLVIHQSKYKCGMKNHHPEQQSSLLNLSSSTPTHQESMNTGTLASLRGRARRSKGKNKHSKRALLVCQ

| SMILES | IC50 |
| --- | --- |
| Cc1nn(Cc2ccccc2)c(Cl)c1C(=O)NC1CCCc2ccccc21 (stereo not drawn) | > 50 µM (inactive) |
| CS(=O)(=O)N1CCCN(c2nc3cc(Cl)ccc3n3cccc23)CC1 | > 50 µM (inactive) |
| COc1cccc(-c2cc(C(=O)Nc3cc(C)n(Cc4ccc(Cl)cc4)n3)no2)c1 | 4.67 µM |
| COc1ccc(NC(=O)Nc2cccc(-c3nnc(-c4ccccc4)o3)c2)cc1OC | 10.9 µM |
| CN(CCc1ccccc1)c1nccc(N2CCN(C(=O)c3csc(-c4cccnc4)n3)CC2)n1 | > 50 µM (inactive) |
| Cc1ccc(C)c(S(=O)(=O)N2CCN(c3ccc4nnc(-c5ccco5)n4n3)CC2)c1 | 22.6 µM |
| O=C(Cc1cccs1)Nc1cc(F)c2nc(N3CCOCC3)ccc2c1 | 31.2 µM |
| Cc1cc(C)c(NC(=O)CSc2nc3nccnc3c(=O)n2Cc2ccccc2Cl)c(C)c1 | 4.02 µM |
| Cc1cnnn1-c1ccc(C(=O)Nc2cc(Cl)ccc2Cl)cc1 | 29.2 µM |
| CCc1ccccc1NC(=O)COc1ccccc1-c1nnc(-c2ccccc2)o1 | 25 µM |
| COc1ccccc1NC(=O)CNC(=O)c1nn(-c2ccc(OC)c(OC)c2)c(=O)c2ccccc12 | 29.4 µM |
| COC1/C=C/OC2(C)Oc3c(C)c(O)c4c(c3C2=O)C(=O)C=C(NC(=O)/C(C)=C\C=C\C(C)C(O)C(C)C(O)C(C)C(OC(C)=O)C1C)C4=O (stereo not drawn) | 18.7 µM |
| Cc1ccc(C)c(NC(=O)CCc2nc(CSc3nc4ccccc4o3)no2)c1 | 33.9 µM |
| O=C1CC(C(=O)Nc2ccccc2F)n2nc(-c3ccccc3)cc2N1 (stereo not drawn) | 25.3 µM |
| CCCCNC(=O)c1cc2cccnc2n(Cc2ccccc2)c1=O | > 50 µM (inactive) |
| COc1cc(NC(=O)c2cc(-c3ccncc3)n(-c3ccc(F)cc3)n2)cc(OC)c1 | > 50 µM (inactive) |
| COc1ccc(NS(=O)(=O)c2cc(NC(=O)CCc3nc4ccccc4s3)ccc2C)cc1 | 28.1 µM |
| O=C(CC1C(=O)N(Cc2ccccc2)c2nc3ccccc3n21)NCCc1ccccc1 (stereo not drawn) | 18.7 µM |
| O=C(CNC(=O)c1cccc(F)c1)Nc1nc2ccccc2[nH]1 | 19.2 µM |
| O=C(CCCCn1c(=O)c2ccccc2n(Cc2ccccc2F)c1=O)NCCc1ccccc1 | 16.8 µM |
| Cc1c(-c2nnc(-c3ccccn3)o2)nnn1-c1cccc(Cl)c1 | 35.1 µM |
| O=C(Nc1ccncc1)c1ncoc1-c1cccc(Cl)c1 | > 50 µM (inactive) |
| O=C(c1ccnn1-c1ccc2ccc(-c3ccncc3)cn12)N1CCCC1 | > 50 µM (inactive) |
| COc1ccc(NC(=O)C2[C@@H]3C(=O)N(C4CCCCC4)C(=O)[C@@H]3[C@H]3c4ccccc4C=CN23)cc1 (stereo partly drawn) | 46.9 µM |
| CCc1ccc(C(C)NC(=O)C2CCN(c3ccc4nncn4n3)CC2)cc1 (stereo not drawn) | > 50 µM (inactive) |

| SMILES | IC50 |
| --- | --- |
| O=C(CSc1ccc(-c2cccc([N+](=O)[O-])c2)nn1)Nc1cccc(F)c1 | 2.7 µM |
| CC1CCN(S(=O)(=O)c2ccc(C(=O)Nc3ccc(S(N)(=O)=O)cc3)cc2)CC1 | 38.3 µM |
| Cc1ccc(CNC(=O)CCCn2c(=O)c3sccc3n(CC(=O)Nc3cc(Cl)ccc3C)c2=O)cc1 | 2.83 µM |
| CCc1ccc(NC(=O)COC(=O)c2n[nH]c3ccccc23)cc1 | 3.42 µM |
| Cc1cccc(-c2noc(CCn3c(=O)[nH]c4ccccc4c3=O)n2)c1 | 34.5 µM |
| CC(=O)Nc1ccc(NC(=O)c2cc(-c3cc(C)cc(C)c3O)n[nH]2)cc1 | 16.3 µM |
| O=C(Nc1cccn(Cc2c(Cl)cccc2Cl)c1=O)c1ccccc1[N+](=O)[O-] | 37 µM |
| COc1ccccc1NC(=O)Cn1cc(C(=O)c2ccc(C)cc2)c(=O)c2ccccc21 | 22.9 µM |
| O=S(=O)(c1ccccc1)N1CCN2Cc3ccccc3N(Cc3ccccc3)CC2C1 (stereo not drawn) | > 50 µM (inactive) |
| COc1ccc(Nc2nc(C(=O)NCc3ccc4c(c3)OCO4)cc3occc23)cc1 | 10.7 µM |
| COc1ccccc1CNC(=O)Nc1cccc2ccccc12 | 39.2 µM |
| O=C(/C=C/c1c(F)cccc1Cl)N1CCc2ccccc2C1 | 34.7 µM |
| Cc1nc(-c2ccccn2)sc1C(=O)Nc1ccc(C#N)cc1 | > 50 µM (inactive) |
| Cc1cccc(O)c1-c1nc2c(-c3nc4c(C(=O)O)cccc4o3)cccc2o1 | > 50 µM (inactive) |
| COc1cccc(NC(=O)Cn2c(COc3ccccc3)nc3ccccc32)c1 | 4.83 µM |
| CC(C)N1C[C@@H]2C[C@H](NS(=O)(=O)c3cccc(C#N)c3)CN2Cc2ccccc21 | > 50 µM (inactive) |
| O=C(CSc1nc2cc(C(F)(F)F)ccc2s1)NCC(=O)c1ccccc1 | 1.86 µM |
| O=C(NCCc1ccccn1)c1cc(-c2ccc(Br)cc2)n[nH]1 | 17.9 µM |
| COc1ccccc1/C=C/C(=O)Nc1nc2n(n1)C(c1ccc(Cl)cc1)CC(=O)N2 (stereo not drawn) | > 50 µM (inactive) |
| CC1(C)Cc2nc3sc4c(=O)n(CC(=O)NCc5ccccc5)cnc4c3cc2CO1 | 44.9 µM |
| CCOC(=O)c1cnc(C(F)(F)F)nc1Sc1n[nH]c(-c2cccs2)n1 | > 50 µM (inactive) |
| CCOc1ccccc1NC(=O)Cn1c(=O)n(CCCC(=O)NCc2ccc(C)cc2)c(=O)c2sccc21 | 2.71 µM |
| COc1ccc(Cn2cnc3c([nH]c4ccc(Br)cc43)c2=O)cc1 | 0.778 µM |
| CC(C)c1cc(Nc2cccc(F)c2)n2nc(-c3cccnc3)nc2n1 | 7.65 µM |
| COc1ccc2[nH]c3c(c2c1)CCN1C(=O)N(c2ccccc2C(=O)NCc2ccccc2)C(=O)[C@]31C | 34.5 µM |

| SMILES | IC50 |
| --- | --- |
| COc1cc(NC(=O)c2cc(CN3CCOCC3)on2)cc(OC)c1 | > 50 µM (inactive) |
| O=C(COc1ccc(Cl)cc1Cl)Nc1ccccc1-c1nc2ccccc2[nH]1 | 2.12 µM |
| O=C(CCn1c(=O)c2sccc2n(CC(=O)OCc2ccccc2)c1=O)NCc1ccc2c(c1)OCO2 | 14.1 µM |
| C/C=C(\Cl)C1=CC(=O)[C@]23C[C@H]2[C@@]2(C)CO[C@@]1(O)[C@@]3(O)O2 | 28.2 µM |
| Cc1cccc(C)c1NC(=O)Cn1c(=O)n(CCCCC(=O)NCc2ccc3c(c2)OCO3)c(=O)c2ccccc21 | 2.23 µM |
| COc1ccc(C(=O)C2CC(=O)Nc3c2c(C)nn3-c2ccc(Br)cc2)cc1 (stereo not drawn) | 10 µM |
| O=C(OCCCN1C(=O)c2cccc3c(N4CCCCC4)ccc(c23)C1=O)c1ccccn1 | > 50 µM (inactive) |
| CCN(CCCNC(=O)c1ccc(Cn2c(=O)[nH]c3ccccc3c2=O)cc1)c1ccccc1 | 16 µM |
| CCOC(=O)c1sc2nc(CC(=O)OC)nc(NCc3ccco3)c2c1C | > 50 µM (inactive) |
| COc1cccc2cc(C(=O)Nc3ccc4c(c3)OCCO4)oc12 | > 50 µM (inactive) |
| COc1ccc(CNC(=O)CCc2nc3sc4c(c3c(=O)[nH]2)CCCCC4)cc1 | > 50 µM (inactive) |
| Cc1ccccc1C(=O)OCCN1C(=O)c2cccc3c(N4CCOCC4)ccc(c23)C1=O | > 50 µM (inactive) |
| Cc1cnc2nc3c(cc2c1)CN(CCc1ccc(Cl)cc1)CC3 | > 50 µM (inactive) |
| O=C(Nc1cccc(Br)c1)c1cc(-c2cccnc2)n[nH]1 | 4.2 µM |
| Cc1c(-c2nc(-c3ccccc3Cl)no2)nnn1-c1cccc(F)c1 | 6.66 µM |
| Cc1ccccc1Cn1ccc(NC(=O)c2noc(C)c2[N+](=O)[O-])n1 | > 50 µM (inactive) |
| Cc1cn[nH]c1C1COCCN1C(=O)c1ccc2ncccc2c1 (stereo not drawn) | > 50 µM (inactive) |
| O=C(Cn1c(=O)n(CC(=O)NC2CCCC2)c(=O)c2ccccc21)Nc1cc(Cl)ccc1Cl | 4.66 µM |
| CCCCc1nc2sc3c(NCCN4CCOCC4)ncnc3c2c2c1CCC2 | > 50 µM (inactive) |
| O=C(COc1nsnc1N1CCOCC1)Nc1ccc(F)c(F)c1 | > 50 µM (inactive) |
| O=C(Cn1cc(C(=O)C2CC2)c2ccccc21)NCc1ccc2c(c1)OCO2 | 29.1 µM |
| COc1ccc2ncc3c(-c4ccc(C)cc4)nn(-c4ccc(F)cc4)c3c2c1 | 3.57 µM |
| CCCc1nc2sc3c(NC4CCCCC4)ncnc3c2c2c1CCC2 | > 50 µM (inactive) |
| O=C(Nc1nc2ccccc2s1)c1ccc2c(c1)C(=O)N(Cc1cccnc1)C2=O | 4.06 µM |
| CC(C)OC(=O)c1cc2c(ccn2C)n1CC(=O)N1CCN(C(=O)c2ccco2)CC1 | > 50 µM (inactive) |

| SMILES | IC50 |
| --- | --- |
| Cc1ccc(NC(=O)Cc2nnc3cc(-c4nc(C)no4)ccn23)cc1 | 18.7 µM |
| Cc1cccc(CNC(=O)c2ccc(-c3nnc(-c4cccc(C)c4)o3)cc2)c1 | 5.03 µM |
| COC(=O)c1ccccc1NC(=O)CSc1nnc(CNc2ccc(F)cc2)n1CC1CCCO1 (stereo not drawn) | > 50 µM (inactive) |
| Cc1sc2ncn3c(=O)n(CC(=O)Nc4ccc(F)c(Cl)c4)nc3c2c1C | 2.82 µM |
| CCc1nc(SCC(=O)Nc2ccccc2Cl)c2oc3ccccc3c2n1 | 0.0527 µM |
| COCCCNC(=O)Cn1c(=O)n(Cc2ccc(C(=O)NCc3ccccc3OC)cc2)c(=O)c2ccccc21 | > 50 µM (inactive) |
| O=C(/C=C/c1cnc2ccccc2c1)NCc1ccccc1 | 43.4 µM |
| CC(C)NC(=O)CN1C(=O)CC(C)Sc2ccc(S(=O)(=O)N3CCCCC3)cc21 (stereo not drawn) | 25.2 µM |
| CC(C)Cn1cc(OC(=O)c2ccc(F)cc2)c2c1nc(-c1ccc(F)cc1)n1c3ccccc3nc21 | > 50 µM (inactive) |
| O=C(Oc1ccc(-c2cnc3ccccc3n2)cc1)c1ccc(F)cc1 | 6.4 µM |
| COc1ccccc1-c1nc2c3c(ncn2n1)Oc1c(c(C)nn1-c1ccccc1)C3c1cccnc1 (stereo not drawn) | 5.68 µM |
| Cn1c(-c2nnc(SCC(=O)Nc3ccccc3F)o2)cc2ccccc21 | 21.3 µM |
| O=C(COc1cc([N+](=O)[O-])cc2cccnc12)NCCC1=CCCCC1 | 23.5 µM |
| CCOc1ccc(-n2c(SCC(=O)N3CC(=O)Nc4ccccc43)nnc2-c2ccc(OC)cc2)cc1 | 42.5 µM |
| COc1cccc2c1NC(=O)C21CCN(C(=O)Nc2cccc(C)c2)CC1 | 20.1 µM |
| COc1ccc(-n2c(=O)c(CCC(=O)O)nc3ccccc32)cc1 | > 50 µM (inactive) |
| Cc1c(Cl)cccc1NC(=O)Cn1ccc2ccccc2c1=O | 2.23 µM |
| COc1ccc(CNC(=O)CN2C(=O)CC(c3ccccc3)=Nc3ccccc32)cc1 | 4.42 µM |
| CC1=C(c2ccc(C)c(C)c2)S(=O)(=O)NC1=NCC(=O)NCCCc1ccccc1 | 12.5 µM |
| CCOc1ccc(NC(=O)Cn2cc(C(=O)c3ccc(Cl)cc3)c(=O)c3cc(OC)ccc32)cc1 | 2.74 µM |
| Cc1ccc(-n2c(=O)c3ccccc3n(Cc3c(F)cccc3Cl)c2=O)cc1 | 3.57 µM |
| COc1cc2c(cc1OC)C(COc1ccccc1OC)N(C(=O)c1ccc3ccccc3c1)CC2 (stereo not drawn) | > 5 µM (inactive) |
| COc1ccccc1NS(=O)(=O)c1ccc2oc(SCC(=O)c3ccccc3)nc2c1 | > 50 µM (inactive) |
